According to publication PMC10035947, “Development of novel anilinoquinazoline-based carboxylic acids as non-classical carbonic anhydrase IX and XII inhibitors” (Journal of Enzyme Inhibition and Medicinal Chemistry, 2023):
Where two headings read alike, the source gives them in different places.

Key:
Assay in all cases: NCI SRB assay
Format in all cases: cell-based, human
SK-MEL-28 = system: SK-MEL-28
UACC-257 = conditions: for CC50: read-out: LC50 (the source's name)
UACC-62 = system: UACC-62
IGROV1 = conditions: for CC50: read-out: LC50 (the source's name)
OVCAR-3 = system: OVCAR-3
OVCAR-4 = conditions: for CC50: read-out: LC50 (the source's name)
OVCAR-5 = conditions: for CC50: read-out: LC50 (the source's name)
NCI/ADR-RES = conditions: for CC50: read-out: LC50 (the source's name)
786-0 = conditions: for CC50: read-out: LC50 (the source's name)
ACHN = conditions: for GI50 / TGI / CC50: 5-dose; for CC50: read-out: LC50 (the source's name)
HS 578 T = conditions: for CC50: Hs-578T, read-out: LC50 (the source's name)
BT-549 = system: BT-549
T-47D = conditions: for GI50 / TGI / CC50: 5-dose; for CC50: read-out: LC50 (the source's name)
[1] = Homo sapiens, IGROV-1, IGROV1, 5-dose
[2] = Homo sapiens, OVCAR-4, OVCAR-4, 5-dose

In the case of `Cc1ccc(-c2nc(Nc3ccccc3C(=O)O)c3ccccc3n2)cc1` [6b, 2-((2-(p-Tolyl)quinazolin-4-yl)amino)benzoic acid], the “Growth Percent” value (SK-MEL-28; SK-MEL-28, 1.00E-5 Molar) is reported as 28.75%, the TGI (SK-MEL-28; SK-MEL-28, 5-dose) is reported as 97.4 µM and the TGI (SK-MEL-28; SK-MEL-28, 5-dose, listed as D - 835857) is reported as 9.74E-5 Molar. The CC50 (SK-MEL-28; SK-MEL-28, 5-dose, read-out: LC50 (the source's name)) was less than 100 µM, the CC50 (UACC-257; Homo sapiens, UACC-257, UACC-257, 5-dose) was greater than 100 µM and the GI50 (UACC-257; Homo sapiens, UACC-257, 5-dose) was 15.3 µM. The GI% (UACC-257; UACC-257, 10 μM) was 71%, the “Growth Percent” value (UACC-257; UACC-257, 1.00E-5 Molar) was 28.64% and the TGI (UACC-257; UACC-257, 5-dose) was 90.3 µM. The TGI (UACC-257; UACC-257, 5-dose, listed as D - 835857) was 9.03E-5 Molar, the CC50 (UACC-257; UACC-257, 5-dose) was less than 100 µM and the GI50 (UACC-62; Homo sapiens, UACC-62, 5-dose) was 10.2 µM. The CC50 (UACC-62; Homo sapiens, UACC-62, 5-dose, read-out: LC50 (the source's name)) was 71.6 µM, the GI% (UACC-62; UACC-62, 10 μM) was 89% and the “Growth Percent” value (UACC-62; UACC-62, 1.00E-5 Molar) was 11.04%. For the same compound, the TGI (UACC-62; UACC-62, 5-dose) was 27.0 µM, the TGI (UACC-62; UACC-62, 5-dose, listed as D - 835857) was 2.70E-5 Molar and the GI50 (IGROV1; [1]) was 19.1 µM. The CC50 (IGROV1; [1]) was greater than 100 µM, the GI% (IGROV1; IGROV1, 10 μM) was 69% and the “Growth Percent” value (IGROV1; IGROV1, 1.00E-5 Molar) was 31.06%. The TGI (IGROV1; IGROV1, 5-dose) was 87.1 µM, the TGI (IGROV1; IGROV1, 5-dose, listed as D - 835857) was 8.71E-5 Molar and the CC50 (IGROV1; IGROV1, 5-dose) was less than 100 µM. The GI50 (OVCAR-3; Homo sapiens, OVCAR-3, 5-dose) was 13.1 µM, the CC50 (OVCAR-3; Homo sapiens, OVCAR-3, 5-dose, read-out: LC50 (the source's name)) was greater than 100 µM and the GI% (OVCAR-3; OVCAR-3, 10 μM) was 94%. The “Growth Percent” value (OVCAR-3; OVCAR-3, 1.00E-5 Molar) was 6.01%, the TGI (OVCAR-3; OVCAR-3, 5-dose) was 5.13E-5 Molar and the GI50 (OVCAR-4; [2]) was 8.77 µM. The CC50 (OVCAR-4; [2]) was greater than 100 µM, the GI% (OVCAR-4; OVCAR-4, 10 μM) was 78% and the “Growth Percent” value (OVCAR-4; OVCAR-4, 1.00E-5 Molar) was 21.83%. It also gave a GI50 (OVCAR-4; OVCAR-4, 5-dose) of 8.8 µM, a TGI (OVCAR-4; OVCAR-4, 5-dose) of less than 100 µM and a TGI (OVCAR-4; OVCAR-4, 5-dose, listed as D - 835857) greater than 1.00E-4 Molar. For the same compound, the CC50 (OVCAR-4; OVCAR-4, 5-dose) was less than 100 µM, the CC50 (OVCAR-5; Homo sapiens, OVCAR-5, OVCAR-5, 5-dose) was greater than 100 µM and the GI50 (OVCAR-5; Homo sapiens, OVCAR-5, 5-dose) was 21.8 µM. For the same compound, the GI% (OVCAR-5; OVCAR-5, 10 μM) was 34%, the “Growth Percent” value (OVCAR-5; OVCAR-5, 1.00E-5 Molar) was 65.92% and the TGI (OVCAR-5; OVCAR-5, 5-dose) was 68.9 µM. The TGI (OVCAR-5; OVCAR-5, 5-dose, listed as D - 835857) was 6.89E-5 Molar, the CC50 (OVCAR-5; OVCAR-5, 5-dose) was less than 100 µM and the GI% (NCI/ADR-RES; 10 μM) was 95%. For the same compound, the “Growth Percent” value (NCI/ADR-RES; 1.00E-5 Molar) was 5.16%, the TGI (NCI/ADR-RES; 5-dose) was 98.5 µM and the TGI (NCI/ADR-RES; 5-dose, listed as D - 835857) was 9.85E-5 Molar. For the same compound, the CC50 (NCI/ADR-RES; 5-dose) was less than 100 µM, the GI50 (NCI/ADR-RES; Homo sapiens, 5-dose) was 16.8 µM and the CC50 (NCI/ADR-RES; Homo sapiens, 5-dose) was greater than 100 µM. The GI% (786-0; 786-0, 10 μM) was 81%, the “Growth Percent” value (786-0; 786-0, 1.00E-5 Molar) was 18.67% and the TGI (786-0; 786-0, 5-dose) was less than 100 µM. For the same compound, the TGI (786-0; 786-0, 5-dose, listed as D - 835857) was greater than 1.00E-4 Molar, the CC50 (786-0; 786-0, 5-dose) was less than 100 µM and the CC50 (786-0; Homo sapiens, 786-0, 786-0, 5-dose) was greater than 100 µM. For the same compound, the GI50 (786-0; Homo sapiens, 786-0, 5-dose) was 17.1 µM, the GI% (ACHN; 10 μM) was 92% and the “Growth Percent” value (ACHN; 1.00E-5 Molar) was 7.89%. For the same compound, the GI50 (ACHN) was 6.4 µM, the TGI (ACHN) was 91.1 µM and the TGI (ACHN; listed as D - 835857) was 9.11E-5 Molar. For the same compound, the CC50 (ACHN) was less than 100 µM, the GI50 (ACHN; Homo sapiens) was 6.44 µM and the CC50 (ACHN; Homo sapiens) was greater than 100 µM. The GI% (HS 578 T; HS 578 T, 10 μM) was 109%, the “Growth Percent” value (HS 578 T; HS 578T, 1.00E-5 Molar) was -9.53% and the TGI (HS 578 T; HS 578 T, 5-dose) was 67.0 µM. It also gave a TGI (HS 578 T; HS 578T, 5-dose) of 6.70E-5 Molar, a CC50 (HS 578 T; Homo sapiens, HS 578 T, 5-dose) of less than 100 µM and a CC50 (HS 578 T; Homo sapiens, HS 578T, 5-dose) greater than 100 µM. The GI50 (HS 578 T; Homo sapiens, HS 578 T, 5-dose) was 10.2 µM, the GI% (BT-549; BT-549, 10 μM) was 123% and the “Growth Percent” value (BT-549; BT-549, 1.00E-5 Molar) was -23.53%. For the same compound, the TGI (BT-549; BT-549, 5-dose) was 33.8 µM, the TGI (BT-549; BT-549, 5-dose, listed as D - 835857) was 3.38E-5 Molar and the GI50 (BT-549; Homo sapiens, BT-549, 5-dose) was 14.6 µM. For the same compound, the CC50 (BT-549; Homo sapiens, BT-549, 5-dose, read-out: LC50 (the source's name)) was 78.1 µM, the GI% (T-47D; 10 μM) was 89% and the “Growth Percent” value (T-47D; 1.00E-5 Molar) was 10.72%. The GI50 (T-47D) was 6.3 µM, the TGI (T-47D) was 70.0 µM and the TGI (T-47D; listed as D - 835857) was 7.00E-5 Molar. It also gave a CC50 (T-47D) of less than 100 µM, a GI50 (T-47D; Homo sapiens, T47D) of 6.29 µM and a CC50 (T-47D; Homo sapiens, T47D) greater than 100 µM.
